{
  "source": "ChEMBL document CHEMBL2057148",
  "about": "“Synthesis of a Microcystis aeruginosa predicted metabolite with antimalarial activity” (Bioorg Med Chem Lett, 2012)",
  "key": {"[1]": {"tested_on": "Plasmodium falciparum", "experiment": "Antimalarial activity against chloroquine-resistant Plasmodium falciparum K1 infected in human A-positive type erythrocytes assessed as [3H]hypoxanthine incorporation after 24 hrs by scintillation counting", "format": "functional, organism-based"}, "[2]": {"tested_on": "Plasmodium falciparum", "experiment": "Ratio of IC50 for aerucyclamide B to compound IC50 for chloroquine-resistant Plasmodium falciparum K1 infected in human A-positive type erythrocytes assessed as [3H]hypoxanthine incorporation after 24 hrs by scintillation counting", "format": "functional"}},
  "data": [
    {"smiles": "CC[C@H](C)[C@@H]1NC(=O)c2csc(n2)[C@H]([C@@H](C)CC)NC(=O)c2csc(n2)CNC(=O)c2nc1oc2C", "note": "[MACROCYCLE]", "values": [
      {"measurement": "IC50", "setting": "[1]", "value": 180, "unit": "nM"},
      {"measurement": "Ratio IC50", "setting": "[2]", "value": 4}
    ]}
  ]
}
